One experiment concerns the target MCL-1 (Homo sapiens (Human), UniProt Q07820, K194A/K197A/R201A). Put plainly: Protein-protein interaction assay MCL-1/Noxa BH3 peptide (MCL-1 assay, TR-FRET). In kind it is binding. The method in brief:
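IC50 came from a 4-parameter regression of the 665/620 nm emission ratio, normalized to DMSO controls. The mix held 1 nM MBP-fused MCL-1 (residues 173-321), a biotin-Noxa BH3 tracer and compound in Tris buffer pH 7, incubated 10 min plus 1 h at 22° C., then overnight at 4° C.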
(Time-resolved FRET reads energy transfer from a long-lived donor to a nearby acceptor.)

In another experiment the target is BCL-2 (Homo sapiens (Human), UniProt P10415). Put plainly: Protein-protein interaction assay BCL-2/Bad BH3 peptide (BCL-2 assay, TR-FRET). The note with it: read-out: BCL-2 Assay IC50 (median). In kind it is binding. The protocol: Assay 3 Protein-Protein Interaction Assay: BCL-2/Bad BH3 Peptide (BCL-2 Assay)
BCL-2, sequence (P10415 1-211): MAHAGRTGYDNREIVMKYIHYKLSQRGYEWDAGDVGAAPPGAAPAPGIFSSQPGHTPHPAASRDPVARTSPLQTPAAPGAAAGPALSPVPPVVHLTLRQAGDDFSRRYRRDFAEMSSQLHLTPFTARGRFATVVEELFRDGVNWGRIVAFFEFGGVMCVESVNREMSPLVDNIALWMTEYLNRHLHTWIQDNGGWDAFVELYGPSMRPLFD
The dose-dependent inhibition by the compounds described in this invention of the interaction between BCL-2 and the BH3 domain of Bad (both human) was determined using a steady state binding competition assay with time-resolved fluorescence energy transfer (TR-FRET) readout. For that purpose BCL-2 (amino acids 1-211, C-terminal fused to a hexahistidine (6×His) tag (SEQ ID 5) and a synthetic Bad BH3-derived peptide of sequence Biotin-PEG2-PEG2-[…]-Nle-[…]-amide (SEQ ID 4) served as protein receptor and tracer ligand respectively. The recombinant BCL-2 protein (expressed in E. coli) was purchased from BPS Bioscience (San Diego, Calif., USA). The Bad BH3-derived peptide can be obtained from e.g. Biosyntan (Berlin, Germany).
In the assay 11 different concentrations of each compound (0.1 nM, 0.33 nM, 1.1 nM, 3.8 nM, 13 nM, 44 nM, 0.15 μM, 0.51 μM, 1.7 μM, 5.9 μM and 20 μM) were typically measured as duplicates in the same microtiter plate. For that, 100-fold concentrated DMSO solutions were prepared by serial dilutions (1:3.4) of a 2 mM stock solution in a clear, 384-well microtiter plate (Greiner Bio-One, Frickenhausen, Germany). From there, 50 nl were transferred in a dark test plate (Greiner Bio-One, Frickenhausen, Germany). The assay was initiated by addition of 2 μL of a 2,5-fold concentrated His-BCL-2 solution (usually for a 1 nM end concentration in 5 μL reaction volume) in aqueous assay buffer [50 mM Tris/HCl pH 7, 100 mM sodium chloride (NaCl), 50 mM potassium fluoride (KF), 0.005% Tween-20, 2 mM DTT, 0.1% bovine gamma globulin (BGG)] to the compounds in the assay plate. This was followed by a 10-minute incubation step at 22° C. for pre-equilibration of the putative complex between His-BCL-2 and the compounds. After that, 3 μL of a 1.67-fold concentrated solution (in assay buffer) consisting of Bad BH3-derived peptide (1 nM end concentration) and TR-FRET detection reagents [1.67 nM anti-His-Eu cryptate and 1.67 nM streptavidin-XL665 (both from Cisbio Bioassays, Codolet, France)], were added.
The mixture was incubated in the dark for one hour at 22° C. and then overnight at 4° C. The formation of BCL-2/Bad complexes was determined by measuring the resonance energy transfer of the anti-His-Eu-cryptate antibody to the streptavidin-XL665 present in the reaction. For that purpose, the fluorescence emission at 620 nm and 665 nm after excitation at 330-350 nm was measured in a TR-FRET measuring instrument, for instance a Rubystar or a Pherastar (both from BMG Lab Technologies, Offenburg, Germany) or a Viewlux (Perkin-Elmer). The ratio of the emission at 665 nm and at 622 nm was used as indicator of the amount of BCL-2/Bad complexes present.
The resulting data (ratio) were normalized, taking 0% inhibition as the mean value of control measurements (usually 32 data points) where all reagents were included. In this case 50 nl DMSO were used instead of compounds. […] IC50 values were determined by regression analysis based on a 4 parameter equation (minimum, maximum, IC50, Hill; Y=Max+(Min−Max)/(1+(X/IC50)^Hill) using the Screener Software (Genedata).

Counter-ions that a name gives are not always drawn. Like-named read-outs stand apart in the source and are kept apart here.

MCL-1, sequence (Q07820 whole entry, looked up, stated change not applied, the tested form may be a part): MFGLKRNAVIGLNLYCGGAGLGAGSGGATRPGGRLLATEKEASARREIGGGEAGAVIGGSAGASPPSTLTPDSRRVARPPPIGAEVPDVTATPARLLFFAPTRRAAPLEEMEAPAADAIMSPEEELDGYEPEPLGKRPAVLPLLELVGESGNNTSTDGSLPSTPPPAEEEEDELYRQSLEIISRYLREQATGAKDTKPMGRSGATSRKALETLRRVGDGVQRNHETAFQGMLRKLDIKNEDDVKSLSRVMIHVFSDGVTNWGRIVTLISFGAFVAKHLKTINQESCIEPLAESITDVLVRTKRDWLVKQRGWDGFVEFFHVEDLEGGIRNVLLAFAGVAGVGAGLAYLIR

The term IC50 denotes the point on the concentration scale where inhibition reaches its midpoint. In the case of `Cc1c2c(nn1C)C(C)OCCCCn1c(C(=O)O)c(CCCOc3cccc4ccccc34)c3cccc-2c31` (racemic) [Example 1, (rac)-2,3,15-trimethyl-7-[3-(naphthalen-1-yloxy)propyl]-2,10,11,12,13,15-hexahydropyrazolo[4′,3′:9,10][1,6]oxazacycloundecino[8,7,6-hi]indole-8-carboxylic Acid (Mixture of Stereoisomers)], the IC50 was 2.2 nM against MCL-1 (MCL-1 Assay IC50 (median)) and > 20000 nM on BCL-2.

Turning to `Cc1c2c(nn1C)C(CCN1CCOCC1)OCCCCn1c(C(=O)O)c(CCCOc3cccc4ccccc34)c3ccc(F)c-2c31` (racemic) [Example 7, (rac)-4-fluoro-2,3-dimethyl-15-[2-(morpholin-4-yl)ethyl]-7-[3-(naphthalen-1-yloxy)propyl]-2,10,11,12,13,15-hexahydropyrazolo[4′,3′:9,10][1,6]oxazacycloundecino[8,7,6-hi]indole-8-carboxylic Acid], the IC50 at MCL-1 (MCL-1 Assay IC50 (median)) was 0.66 nM; on BCL-2 it was > 20000 nM.

For the compound `CCc1c2c(nn1C)C(CCN1CCOCC1)OCCCCn1c(C(=O)O)c(CCCOc3cccc4ccccc34)c3ccc(F)c-2c31` (racemic) [Example 10, (rac)-3-ethyl-4-fluoro-2-methyl-15-[2-(morpholin-4-yl)ethyl]-7-[3-(naphthalen-1-yloxy)propyl]-2,10,11,12,13,15-hexahydropyrazolo[4′,3′:9,10][1,6]oxazacycloundecino[8,7,6-hi]indole-8-carboxylic Acid], the values for the IC50 on MCL-1 (MCL-1 Assay IC50 (median)) and at BCL-2 were 0.72 nM and > 20000 nM, respectively.

The compound `CCc1c2c(nn1C)C(C(F)(F)F)OCCCCn1c(C(=O)O)c(CCCOc3cccc4ccccc34)c3ccc(Cl)c-2c31` (racemic) [Example 27, (rac)-4-Chloro-3-ethyl-2-methyl-7-{3-[(naphthalen-1-yl)oxy]propyl}-15-(trifluoromethyl)-2,10,11,12,13,15-hexahydropyrazolo[4′,3′:9,10][1,6]oxazacycloundecino[8,7,6-hi]indole-8-carboxylic Acid] gave an IC50 against MCL-1 (MCL-1 Assay IC50 (median)) of 3.8 nM.

Consider `CCc1c2c(nn1C)C(C1CC1)OCCCCn1c(C(=O)O)c(CCCOc3cccc4cc(F)ccc34)c3ccc(Cl)c-2c31` (racemic) [Example 38, (rac)-4-chloro-(15-rac)-cyclopropyl-3-ethyl-7-{3-[(6-fluoronaphthalen-1-yl)oxy]propyl}-2-methyl-2,10,11,12,13,15-hexahydropyrazolo[4′,3′:9,10][1,6]oxazacycloundecino[8,7,6-hi]indole-8-carboxylic Acid], for which, at MCL-1 (MCL-1 Assay IC50 (median)), inhibition was half-maximal at 1.3 nM (IC50).

`CCc1c2c(nn1C)C1CCCCN1CCCCn1c(C(=O)O)c(CCCOc3cccc4ccccc34)c3ccc(Cl)c-2c31` (racemic) [Example 102, (rac)-18-chloro-1-ethyl-2-methyl-15-[3-(1-naphthyloxy)propyl]-2,3b,4,5,6,7,9,10,11,12-decahydropyrazolo[3′,4′:8,9]pyrido[1′,2′:6,7][1,6]diazacycloundecino[10,11,1-hi]indole-14-carboxylic Acid]: the IC50 on MCL-1 (MCL-1 Assay IC50 (median)) is 1.4 nM.

As for `CCc1c2c(nn1C)C1CCCN1CCCCn1c(C(=O)O)c(CCCOc3cccc4cc(F)ccc34)c3ccc(Cl)c-2c31` (single isomer, unassigned; (+)) [Example 105, (+)-17-chloro-1-ethyl-14-{3-[(6-fluoronaphthalen-1-yl)oxy]propyl}-2-methyl-3b,4,5,6,8,9,10,11-octahydro-2H-pyrazolo[3′,4′:8,9]pyrrolo[1′,2′:6,7][1,6]diazacycloundecino[10,11,1-hi]indole-13-carboxylic Acid], the IC50 on MCL-1 (read-out: MCL-1 Assay IC50 (median)) was found to be 1.1 nM.

At MCL-1 (MCL-1 Assay IC50 (median)), `CCc1c2c(nn1C)C(CCC1CCOCC1)OCCCCn1c(C(=O)O)c(CCCOc3cccc4cc(F)ccc34)c3ccc(Cl)c-2c31` (single isomer, unassigned; enantiomer 1) [Example 61, 4-chloro-3-ethyl-7-{3-[(6-fluoronaphthalen-1-yl)oxy]propyl}-2-methyl-15-[2-(oxan-4-yl)ethyl]-2,10,11,12,13,15-hexahydropyrazolo[4′,3′:9,10][1,6]oxazacycloundecino[8,7,6-hi]indole-8-carboxylic Acid (Enantiomer 1)] had an IC50 of 0.46 nM.

On to `CCC1OCCCCn2c(C(=O)O)c(CCCOc3cccc4ccccc34)c3ccc(Cl)c(c32)-c2c1nn(C)c2C` (single isomer, unassigned; enantiomer 2) [Example 30, (−)-4-chloro-15-ethyl-2,3-dimethyl-7-{3-[(naphthalen-1-yl)oxy]propyl}-2,10,11,12,13,15-hexahydropyrazolo[4′,3′:9,10][1,6]oxazacycloundecino[8,7,6-hi]indole-8-carboxylic Acid—N-ethylethanamine Salt (Enantiomer 2)], for which the IC50 on BCL-2 is > 20000 nM.

Take `Cc1c2c(nn1C)C(C1CC1)OCCCCn1c(C(=O)O)c(CCCOc3cccc4ccccc34)c3ccc(Cl)c-2c31` (single isomer, unassigned; enantiomer 2) [Example 36, (−)-4-chloro-15-cyclopropyl-2,3-dimethyl-7-{3-[(naphthalen-1-yl)oxy]propyl}-2,10,11,12,13,15-hexahydropyrazolo[4′,3′:9,10][1,6]oxazacycloundecino[8,7,6-hi]indole-8-carboxylic Acid N-ethylethanamine Salt (Enantiomer 2)]: the IC50 at BCL-2 came to 14600 nM.

In the case of `CCc1c2c(nn1C)C(CCOC)OCCCCn1c(C(=O)O)c(CCCOc3cccc4cc(F)ccc34)c3ccc(Cl)c-2c31` (single isomer, unassigned; enantiomer 2) [Example 43, (−)-4-chloro-3-ethyl-7-{3-[(6-fluoronaphthalen-1-yl)oxy]propyl}-15-(2-methoxyethyl)-2-methyl-2,10,11,12,13,15-hexahydropyrazolo[4′,3′:9,10][1,6]oxazacycloundecino[8,7,6-hi]indole-8-carboxylic Acid—N-ethylethanamine Salt (Enantiomer 2)], the IC50 on BCL-2 was determined as 19300 nM.

`CCc1c2c(nn1C)C(CCN1CCC(F)(F)C1)OCCCCn1c(C(=O)O)c(CCCOc3cccc4cc(F)ccc34)c3ccc(Cl)c-2c31` (single isomer, unassigned; enantiomer 2) [Example 57, 4-chloro-15-[2-(3,3-difluoropyrrolidin-1-yl)ethyl]-3-ethyl-7-{3-[(6-fluoronaphthalen-1-yl)oxy]propyl}-2-methyl-2,10,11,12,13,15-hexahydropyrazolo[4′,3′:9,10][1,6]oxazacycloundecino[8,7,6-hi]indole-8-carboxylic Acid N-ethylethanamine Salt (Enantiomer 2)]: the IC50 on BCL-2 is > 20000 nM.

For `CCc1c2c(nn1C)C(CC(C)(C)O)OCCCCn1c(C(=O)O)c(CCCOc3cccc4cc(F)ccc34)c3ccc(Cl)c-2c31` (single isomer, unassigned; enantiomer 21) [Example 54, (−)-4-chloro-3-ethyl-7-{3-[(6-fluoronaphthalen-1-yl)oxy]propyl}-15-(2-hydroxy-2-methylpropyl)-2-methyl-2,10,11,12,13,15-hexahydropyrazolo[4′,3′:9,10][1,6]oxazacycloundecino[8,7,6-hi]indole-8-carboxylic Acid—N-ethylethanamine Salt (Enantiomer 21], the IC50 at BCL-2 is > 20000 nM.

The values are drawn from patent publication US11440923B2, “Substituted macrocyclic indole derivatives” (Bayer Aktiengesellschaft, priority 2017, dated 2022).
